# Key:
# Format in all cases: in vivo
# [1] = system: foxtail, giant (giant foxtail, Setaria faberi); assay: Test C preemergence, visual plant response rating
# How it was run: (§1)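 Compounds in a non-phytotoxic solvent with surfactant were applied as a directed soil spray preemergence or to 2–10 cm, one- to two-leaf plants postemergence, in loam–sand soil. After about 10 d in a greenhouse, injury was visually rated against untreated controls on a 0–100 scale (100 = complete control).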
# [2] = system: Italian ryegrass (Lolium mutiflorum); assay: Test C preemergence, visual plant response rating
# How it was run: as §1
# [3] = system: barnyardgrass (Echinochloa crus-galli); assay: Test C preemergence, visual plant response rating
# How it was run: as §1
# [4] = system: pigweed (Amaranthus retroflexus); assay: Test C preemergence, visual plant response rating
# How it was run: as §1
# [5] = system: kochia (Bassia scoparia); assay: Test C preemergence, visual plant response rating
# How it was run: as §1
# [6] = system: ragweed (common ragweed, Ambrosia artemisiifolia); assay: Test C preemergence, visual plant response rating
# How it was run: as §1
# [7] = system: foxtail, giant (giant foxtail, Setaria faberi); assay: Test C postemergence, visual plant response rating
# How it was run: as §1
# [8] = system: Italian ryegrass (Lolium mutiflorum); assay: Test C postemergence, visual plant response rating
# How it was run: as §1
# [9] = system: wheat (Triticum aestivum); assay: Test C postemergence, visual plant response rating
# How it was run: as §1
# [10] = system: corn (Zea mays); assay: Test C postemergence, visual plant response rating
# How it was run: as §1
# [11] = system: galium (catchweed bedstraw, Galium aparine); assay: Test C postemergence, visual plant response rating
# How it was run: as §1
# [12] = system: blackgrass (Alopecurus myosuroides); assay: Test C postemergence, visual plant response rating
# How it was run: as §1
# [13] = system: barnyardgrass (Echinochloa crus-galli); assay: Test C postemergence, visual plant response rating
# How it was run: as §1
# [14] = system: pigweed (Amaranthus retroflexus); assay: Test C postemergence, visual plant response rating
# How it was run: as §1
# [15] = system: kochia (Bassia scoparia); assay: Test C postemergence, visual plant response rating
# How it was run: as §1
# [16] = system: ragweed (common ragweed, Ambrosia artemisiifolia); assay: Test C postemergence, visual plant response rating
# How it was run: as §1
# [17] = system: sedge umbrella (small-flower umbrella sedge, Cyperus difformis); assay: Test D flooded paddy test, visual plant response rating; settings: 250 g ai/ha, scale 0 to 100 (0 no effect, 100 complete control), 13 to 15 d
# How it was run: (§2)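 Plants were grown to the 2-leaf stage, pots flooded to 3 cm above soil, and compound applied directly into the paddy water, with the depth held throughout. After 13 to 15 d in a greenhouse, response was rated visually against untreated controls on a 0–100 scale (0 no effect, 100 complete control).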
# [18] = system: rice (Oryza sativa); assay: as above; settings: 250 g ai/ha, scale 0 to 100 (0 no effect, 100 complete control), 13 to 15 d
# How it was run: as §2
# [19] = system: barnyardgrass (Echinochloa crus-galli); assay: as above; settings: 250 g ai/ha, scale 0 to 100 (0 no effect, 100 complete control), 13 to 15 d
# How it was run: as §2
# [20] = system: duck salad (Heteranthera limosa); assay: as above; settings: 250 g ai/ha, scale 0 to 100 (0 no effect, 100 complete control), 13 to 15 d
# How it was run: as §2
# [21] = Test C, 31 g ai/ha, 0 is no effect, 100 is complete control
# [22] = Test C, postemergence, 125 g ai/ha
# [23] = Test C, 125 g ai/ha, 0 is no effect, 100 is complete control
Structure (SMILES),"Foxtail, Giant plant response rating (0 to 100 scale) [1, 21]","Ryegrass, Italian plant response rating (0 to 100 scale) [2, 21]","Barnyardgrass plant response rating (0 to 100 scale) [3, 21]","Pigweed plant response rating (0 to 100 scale) [4, 21]","Kochia plant response rating (0 to 100 scale) [5, 21]","Ragweed plant response rating (0 to 100 scale) [6, 21]","Foxtail, Giant plant response rating (0 to 100 scale) ([7]; Postemergence, 31 g ai/ha)","Foxtail, Giant plant response rating (0 to 100 scale) [7, 22]","Ryegrass, Italian plant response rating (0 to 100 scale) ([8]; Postemergence, 31 g ai/ha)","Ryegrass, Italian plant response rating (0 to 100 scale) [8, 22]","Wheat plant response rating (0 to 100 scale) ([9]; Postemergence, 31 g ai/ha)","Wheat plant response rating (0 to 100 scale) [9, 22]","Corn plant response rating (0 to 100 scale) ([10]; Postemergence, 31 g ai/ha)","Corn plant response rating (0 to 100 scale) [10, 22]","Galium plant response rating (0 to 100 scale) ([11]; Postemergence, 31 g ai/ha)","Galium plant response rating (0 to 100 scale) [11, 22]","Blackgrass plant response rating (0 to 100 scale) ([12]; Postemergence, 31 g ai/ha)","Blackgrass plant response rating (0 to 100 scale) [12, 22]","Barnyardgrass plant response rating (0 to 100 scale) ([13]; Postemergence, 31 g ai/ha)","Barnyardgrass plant response rating (0 to 100 scale) [13, 22]",also measured
C#CCO/N=C(\c1ccc(F)c(Br)c1)c1c(O)c(C)nn(C)c1=O [Compound 164],10,0,0,70,0,0,10,70,0,70,20,80,10,30,60,70,30,50,30,60,"Foxtail, Giant plant response rating (0 to 100 scale) ([1]; 125 g ai/ha): 50; Ryegrass, Italian plant response rating (0 to 100 scale) ([2]; 125 g ai/ha): 30; Barnyardgrass plant response rating (0 to 100 scale) ([3]; 125 g ai/ha): 50; Pigweed plant response rating (0 to 100 scale) ([4]; 125 g ai/ha): 90; Kochia plant response rating (0 to 100 scale) ([5]; 125 g ai/ha): 50; Ragweed plant response rating (0 to 100 scale) ([6]; 125 g ai/ha): 30; Pigweed plant response rating (0 to 100 scale) ([14]; Postemergence, 31 g ai/ha): 50; Pigweed plant response rating (0 to 100 scale) [14, 22]: 70; Kochia plant response rating (0 to 100 scale) ([15]; Postemergence, 31 g ai/ha): 30; Kochia plant response rating (0 to 100 scale) [15, 22]: 70; Ragweed plant response rating (0 to 100 scale) ([16]; Postemergence, 31 g ai/ha): 20; Ragweed plant response rating (0 to 100 scale) [16, 22]: 50; Plant response rating, Sedge, Umbrella (Flood) [17]: 0; Plant response rating, Rice (Flood) [18]: 0; Plant response rating, Barnyardgrass (Flood) [19]: 0; Plant response rating, Ducksalad (Flood) [20]: 0"
C#CCON=C(c1ccc(Cl)c(Cl)c1)c1c(O)c(C)nn(C)c1=O [Compound 178],10,0,30,20,0,0,10,30,20,90,0,80,0,10,40,80,0,30,20,50,"Foxtail, Giant plant response rating (0 to 100 scale) ([1]; 125 g ai/ha): 60; Ryegrass, Italian plant response rating (0 to 100 scale) ([2]; 125 g ai/ha): 70; Barnyardgrass plant response rating (0 to 100 scale) ([3]; 125 g ai/ha): 50; Pigweed plant response rating (0 to 100 scale) ([4]; 125 g ai/ha): 70; Kochia plant response rating (0 to 100 scale) ([5]; 125 g ai/ha): 0; Ragweed plant response rating (0 to 100 scale) ([6]; 125 g ai/ha): 40; Pigweed plant response rating (0 to 100 scale) ([14]; Postemergence, 31 g ai/ha): 20; Pigweed plant response rating (0 to 100 scale) [14, 22]: 40; Kochia plant response rating (0 to 100 scale) ([15]; Postemergence, 31 g ai/ha): 40; Kochia plant response rating (0 to 100 scale) [15, 22]: 70; Ragweed plant response rating (0 to 100 scale) ([16]; Postemergence, 31 g ai/ha): 0; Ragweed plant response rating (0 to 100 scale) [16, 22]: 40; Plant response rating, Sedge, Umbrella (Flood) [17]: 0; Plant response rating, Rice (Flood) [18]: 0; Plant response rating, Barnyardgrass (Flood) [19]: 0; Plant response rating, Ducksalad (Flood) [20]: 0"
CO/N=C(/c1cccc(/C=C/Cl)c1)c1c(O)c(C)nn(C)c1=O [Compound 285],0,0,0,0,0,0,10,20,0,0,0,0,0,0,50,60,0,10,20,30,"Foxtail, Giant plant response rating (0 to 100 scale) [1, 23]: 0; Ryegrass, Italian plant response rating (0 to 100 scale) [2, 23]: 10; Barnyardgrass plant response rating (0 to 100 scale) [3, 23]: 0; Pigweed plant response rating (0 to 100 scale) [4, 23]: 0; Kochia plant response rating (0 to 100 scale) [5, 23]: 0; Ragweed plant response rating (0 to 100 scale) [6, 23]: 10; Pigweed plant response rating (0 to 100 scale) ([14]; Postemergence, 31 g ai/ha): 0; Pigweed plant response rating (0 to 100 scale) [14, 22]: 70; Kochia plant response rating (0 to 100 scale) ([15]; Postemergence, 31 g ai/ha): 10; Kochia plant response rating (0 to 100 scale) [15, 22]: 20; Ragweed plant response rating (0 to 100 scale) ([16]; Postemergence, 31 g ai/ha): 30; Ragweed plant response rating (0 to 100 scale) [16, 22]: 60; Plant response rating, Sedge, Umbrella (Flood) [17]: 0; Plant response rating, Rice (Flood) [18]: 0; Plant response rating, Barnyardgrass (Flood) [19]: 0; Plant response rating, Ducksalad (Flood) [20]: 0"

# — patent US20210045385A1, “PYRIDAZINONE-SUBSTITUTED KETOXIMES AS HERBICIDES” (FMC Corporation, priority 2018, published 2021)
